Test results from patent US20100130725A1, “METHODS FOR CHARACTERIZING MOLECULES” (priority 2008, published 2010).
Several values for one entry are separate records, joined by “and”; a condition that tells them apart may be missing. Identical values can stand only once. Like-named read-outs stand apart in the source and are kept apart here. Ends that are not written are not given here.

Columns and labels:
Assay type in all cases: cell-based, human
[1] = system: A549 cells; assay: Epic RWG biosensor DMR assay, agonist mode (primary profile), A549 cells; conditions: for DMR signal triggered by the ligand (primary profile), second ligand panel: FIG. 8: 40 μM pinacidil, 250 μg/ml poly(I:C), 8 μM PMA, 16 μM forskolin
Experimental: All cell lines were obtained from American Type Cell Culture (Manassas, Va.). The cell culture medium was as follows: Dulbecco's modified Eagle's medium (DMEM) supplemented with 10% fetal bovine serum (FBS), 4.5 g/liter glucose, 2 mM glutamine, and antibiotics for human epidermoid carcinoma A431 and human lung carcinoma A549.
Cells were typically grown using ˜1 to 2×10^4 cells per well at passage 3 to 15 suspended in 50 μl of the corresponding culture medium in the biosensor microplate, and were cultured at 37° C. under air/5% CO2 for ˜1 day. Except for A431, which was subject to ˜20 hr starvation through continuous culture in the serum-free DMEM, the other cell types were directly assayed without starvation. The confluency for all cells at the time of assays was ˜95% to 100%.
Epic® wavelength interrogation system (Corning Inc., Corning, N.Y.) was used for whole cell sensing. This system consists of a temperature-control unit, an optical detection unit, and an on-board liquid handling unit with robotics. The detection unit is centered on integrated fiber optics, and enables kinetic measures of cellular responses with a time interval of ˜15 sec.
The RWG biosensor is capable of detecting minute changes in local index of refraction near the sensor surface. Since the local index of refraction within a cell is a function of density and its distribution of biomass (e.g., proteins, molecular complexes), the biosensor exploits its evanescent wave to non-invasively detect ligand-induced dynamic mass redistribution in native cells. The evanescent wave extends into the cells and exponentially decays over distance, leading to a characteristic sensing volume of ˜150 nm, implying that any optical response mediated through the receptor activation only represents an average over the portion of the cell that the evanescent wave is sampling. The aggregation of many cellular events downstream the receptor activation determines the kinetics and amplitudes of a ligand-induced DMR.
(§1) For biosensor cellular assays, molecule solutions were made by diluting the stored concentrated solutions with the HBSS (1× Hanks balanced salt solution, plus 20 mM Hepes, pH 7.1), and transferred into a 384 well polypropylene molecule storage plate to prepare a molecule source plate. Both molecule and marker source plates were made separately when a two-step assay was performed. In parallel, the cells were washed twice with the HBSS and maintained in 30 μl of the HBSS to prepare a cell assay plate. Both the cell assay plate and the molecule and marker source plate(s) were then incubated in the hotel of the reader system. After ˜1 hr of incubation the baseline wavelengths of all biosensors in the cell assay microplate were recorded and normalized to zero. Afterwards, a 2 to 10 minute continuous recording was carried out to establish a baseline, and to ensure that the cells reached a steady state. Cellular responses were then triggered by pipetting 10 μl of the marker solutions into the cell assay plate using the on-board liquid handler.
First, a panel of ligands targeting GPCRs, each at 10 μM concentration, was chosen, and examined their actions on the A549 cells using DMR measurements with the Epic® system. The ligand panel included the four P2Y agonists ADP, […], UTP and UDP, the adenosine receptor agonist adenosine, the calcium sensing receptor agonist spermine, the histamine receptor agonist histamine, the adrenergic receptor agonist epinephrine, the free fatty acid receptor agonist elaidic acid, the lipoxin receptor agonist lipoxin A4, the bradykinin receptor agonist bradykinin, the adrenodullin receptor agonist adrenodullin, the PAR1 agonist SFLLR-amide, the angiotensin receptor agonist angiotensin, the neuropeptide Y receptor agonist neuropeptide Y, and the PAR2 agonist SLIGKV-amide.
Next, a second ligand panel was chosen, and examined their actions on the A549 cells using DMR measures with the Epic® system.

[2] = system: A549 cells; assay: Epic DMR two-step assay, antagonist mode: modulation of marker-induced DMR signals in A549 cells; conditions: molecule 10 μM
Experimental: as §1
A second panel of markers was contacted with A549 cells at concentrations close to each of the marker's EC80 or EC100, and DMR measurements were obtained with and EPIC® system. This panel included poly(I:C), SLIGKV-amide, pinacidil, PMA, histamine, and forskolin. Each of these markers also leads to a wide array of cell signaling. Using Epic® cellular assays in conjunction with chemical biology and cell biology approach similar to the EGFR DMR mentioned above, we have determined the pathway(s) and network interaction(s) that is accounted for each marker-induced DMR signal in A549 cells. The main observations are summarized below. Poly(I:C) is an agonist for endogenous Toll-like receptor(s) in A549, whose activation leads to IKK pathway and AKT pathway. SLIGKV-amide is an agonist for endogenous protease activated receptor subtype 2 (PAR2) in A549, whose activation leads to Gq-, Gi- and G12/13-mediated signaling. Pinacidil is an opener for endogenous ATP-sensitive potassium (KATP) ion channel in A549, whose activation leads to Rho- and JAK-mediated signaling. PMA is an activator for protein kinase C (PKC), whose activation leads to PKC pathway and degranulation. Histamine is a natural agonist for endogenous histamine receptors (dominantly H1R, and possibly H3R), whose activation leads to dual signaling, possibly through Gq and Gi mediated signaling in A549. Forskolin is an activator for adenylyl cyclases, whose activation leads to cAMP-PKA pathway in A549. […] Each DMR signal represents an averaged response of 4 replicates.
A DMR index was generated for four ligand molecules. Quiescent A431 and proliferating A549 cells were separately exposed to the ligand molecules for about 1 hr to generate their primary profiles, followed by stimulation with each marker at a fixed concentration (as mentioned in FIGS. 7 and 8) for another 1 hr or so to generate secondary profiles of the molecule against the panels of markers in both types of cells. Next, one or more specific DMR parameters were chosen as a readout for plotting the DMR index of the molecule. For the pinacidil DMR response in A549, the amplitude of the N-DMR (i.e., the amplitude 30 min after stimulation) was chosen. For the poly(I:C) DMR response in A549, the amplitude of the late DMR (i.e., the amplitude 50 min after stimulation) was chosen. For the PMA response in A549, the late DMR amplitude (i.e., the amplitude 50 min after stimulation) was chosen. For the SLIGKV-amide DMR response in A549, the P-DMR amplitude (i.e., the amplitude 20 min after stimulation) was chosen. For the forskolin response in A549 cells, the P-DMR amplitude (i.e., the amplitude 50 min after stimulation) was chosen. For the histamine response in A549, both the early DMR amplitude (i.e., amplitude 10 min after stimulation) and the late response (i.e., the amplitude 30 min after stimulation) were chosen. […]

[3] = system: quiescent A431 cells; assay: Epic DMR two-step assay, antagonist mode: modulation of marker-induced DMR signals in quiescent A431 cells
Experimental: as §1
Next, the target specificity and signaling pathway of EGF was probed using a second set of assays.
A first panel of markers was contacted with quiescent A431 cells at concentrations close to each of the marker's EC80 or EC100, and DMR measurements were obtained with and EPIC® system. This panel of markers was selected from a library of markers identified in A431 cells using Epic® cellular assays. This panel included epidermal growth factor (EGF), epinephrine, nicotinic acid, and histamine. Each of these markers leads to a wide array of cell signaling. […] Each DMR signal represents an averaged response of 4 replicates.
A DMR index was generated for four ligand molecules. Quiescent A431 and proliferating A549 cells were separately exposed to the ligand molecules for about 1 hr to generate their primary profiles, followed by stimulation with each marker at a fixed concentration (as mentioned in FIGS. 7 and 8) for another 1 hr or so to generate secondary profiles of the molecule against the panels of markers in both types of cells. Next, one or more specific DMR parameters were chosen as a readout for plotting the DMR index of the molecule. For the pinacidil DMR response in A549, the amplitude of the N-DMR (i.e., the amplitude 30 min after stimulation) was chosen. For the poly(I:C) DMR response in A549, the amplitude of the late DMR (i.e., the amplitude 50 min after stimulation) was chosen. For the PMA response in A549, the late DMR amplitude (i.e., the amplitude 50 min after stimulation) was chosen.

[4] = quiescent A431, ligand 10 μM, about 1 hr pretreatment, 32 nM EGF

poly(I:C)
DMR signal triggered by the ligand (primary profile), second ligand panel ([1]; A549 cells): robust DMR signals

Nc1ncnc2c1ncn2[C@@H]1O[C@H](COP(=O)(O)OP(=O)(O)OP(=O)(O)O)[C@@H](O)[C@H]1O [AT]
DMR signal triggered by the ligand (primary profile) ([1]; A549 cells, ligand 10 μM): robust DMR signals

NCCc1c[nH]cn1 [histamine]
DMR signal triggered by the ligand (primary profile) ([1]; A549 cells, ligand 10 μM): robust DMR signals

O=S(=O)(c1cccc2cnccc12)N1CCCNCC1 [HA1077]
modulation of the PMA response [2]: significantly potentiated | modulation of the histamine response [2]: significantly potentiated | modulation of the pinacidil response [2]: almost completely attenuated | modulation of PMA-induced DMR response (late DMR amplitude) ([2]; 8 μM PMA, amplitude 50 min after stimulation): +36% | modulation of SLIGKV-amide-induced DMR response (P-DMR amplitude) ([2]; 8 μM SLIGKV-amide, amplitude 20 min after stimulation): +22% | modulation of histamine-induced DMR response (early P-DMR) ([2]; 10 μM histamine, amplitude 10 min after stimulation): +26% | modulation of histamine-induced DMR response (late P-DMR) ([2]; 10 μM histamine, amplitude 30 min after stimulation): +55% | modulation of forskolin-induced DMR response (P-DMR amplitude) ([2]; 16 μM forskolin, amplitude 50 min after stimulation): +18% | modulation of poly(I:C)-induced DMR response (late DMR amplitude) ([2]; 250 μg/ml poly(I:C), amplitude 50 min after stimulation): +18% | modulation of pinacidil-induced DMR response (N-DMR amplitude) ([2]; ~1 hr pretreatment, 40 μM pinacidil, amplitude 30 min after stimulation): −86% and −95%

CCCCCCCCCCCCCC(=O)O[C@@H]1[C@@H](C)[C@@]2(O)[C@@H](C=C(CO)C[C@]3(O)C(=O)C(C)=C[C@@H]23)[C@@H]2C(C)(C)[C@]12OC(C)=O [PMA, Phorbol 12-myristate 13-acetate]
DMR signal triggered by the ligand (primary profile), second ligand panel ([1]; A549 cells): robust DMR signals

Nc1ncnc2c1ncn2[C@@H]1O[C@H](CO)[C@@H](O)[C@H]1O [adenosine]
DMR signal triggered by the ligand (primary profile) ([1]; A549 cells, ligand 10 μM): robust DMR signals

O=c1ccn([C@@H]2O[C@H](COP(=O)(O)OP(=O)(O)O)[C@@H](O)[C@H]2O)c(=O)[nH]1 [UDP]
DMR signal triggered by the ligand (primary profile) ([1]; A549 cells, ligand 10 μM): robust DMR signals

SFLLR-amide
DMR signal triggered by the ligand (primary profile) ([1]; A549 cells, ligand 10 μM): robust DMR signals

BML-265
modulation of the EGF-induced DMR signal [3, 4]: almost completely blocked

adrenodullin: adrenodullin receptor agonist (YRQSMNNFQGLRSFGCRFGTCTVQKLAHQIYQFTDKDKDNVAPRSKISPQGY; ends and bridges not checked; cysteine pairing not given here; UniProt P35318 95-146, looked up)
DMR signal triggered by the ligand (primary profile) ([1]; A549 cells, ligand 10 μM): robust DMR signals

O=c1ccn([C@@H]2O[C@H](COP(=O)(O)OP(=O)(O)OP(=O)(O)O)[C@@H](O)[C@H]2O)c(=O)[nH]1 [UTP]
DMR signal triggered by the ligand (primary profile) ([1]; A549 cells, ligand 10 μM): robust DMR signals

angiotensin
DMR signal triggered by the ligand (primary profile) ([1]; A549 cells, ligand 10 μM): robust DMR signals

CNC[C@H](O)c1ccc(O)c(O)c1 [epinephrine]
DMR signal triggered by the ligand (primary profile) [1]: robust DMR signals

CC(=O)c1c(O)c(C)c(O)c(Cc2c(O)c3c(c(C(=O)/C=C/c4ccccc4)c2O)OC(C)(C)C=C3)c1O [rottlerin]
modulation of the EGF-induced DMR signal [3, 4]: specifically caused the truncation of the early P-DMR event, as well as part of the early N-DMR event

COc1cc2ncnc(Nc3cccc(Cl)c3)c2cc1OC [AG1478]
modulation of the EGF-induced DMR signal [3, 4]: almost completely blocked

CCCCCCCC/C=C/CCCCCCCC(=O)O [elaidic acid]
DMR signal triggered by the ligand (primary profile) ([1]; A549 cells, ligand 10 μM): robust DMR signals

neuropeptide Y
DMR signal triggered by the ligand (primary profile) ([1]; A549 cells, ligand 10 μM): robust DMR signals

SLIGKV-NH2
DMR signal triggered by the ligand (primary profile) ([1]; A549 cells, ligand 10 μM): robust DMR signals

NCCCNCCCCNCCCN [spermine]
DMR signal triggered by the ligand (primary profile) ([1]; A549 cells, ligand 10 μM): robust DMR signals

CCCCC[C@H](O)/C=C/C=C\C=C\C=C\[C@@H](O)[C@@H](O)CCCC(=O)O [lipoxin A4]
DMR signal triggered by the ligand (primary profile) ([1]; A549 cells, ligand 10 μM): robust DMR signals

CNCCNS(=O)(=O)c1cccc2cnccc12 [H8]
modulation of the epinephrine response ([3]; A431, molecule 10 μM): less effective at attenuating | modulation of the histamine response ([3]; A431, molecule 10 μM): less effective at attenuating

N#CC(=C(/N)Sc1ccccc1N)/C(C#N)=C(\N)Sc1ccccc1N [U0126]
modulation of the EGF-induced DMR signal [3]: significantly and selectively attenuated the N-DMR and the RP-DMR signals

Nc1ncnc2c1ncn2[C@@H]1O[C@H](COP(=O)(O)OP(=O)(O)O)[C@@H](O)[C@H]1O [ADP]
DMR signal triggered by the ligand (primary profile) ([1]; A549 cells, ligand 10 μM): robust DMR signals

CC(N/C(=N\C#N)Nc1ccncc1)C(C)(C)C (stereo not shown) [pinacidil]
DMR signal triggered by the ligand (primary profile), second ligand panel ([1]; A549 cells): robust DMR signals
